Test results as given in US11147785B2, “Modified free amino acid formulation and uses” (priority 2020, dated 2021).

Key:
[1] = Topical application without propylene glycol; format: in vivo
[2] = tested on: hepatic and intestinal glucuronidation; details: concomitant administration; more in humans than rats; cited from earlier work

| Structure (SMILES) | Efficacy in topical applications [1] | Increase of bioavailability (serum concentration and extent of intestinal absorption) [2] |
| --- | --- | --- |
| N[C@@H](CCC(=O)O)C(=O)[O-].O.[Na+] [MSGLM, Monosodium L-Glutamate Monohydrate] | ineffective | – |
| O=C(/C=C/C=C/c1ccc2c(c1)OCO2)N1CCCCC1 [Piperine] | – | up to 20 fold |
